Assays:
Test in all cases: KINOMEscan competition binding
Conditions in all cases: compound 10.0 µM
[1] = target: PAK3 (human) (UniProt O75914)
[2] = target: CDK14 (human) (UniProt O94921)
[3] = tested on: EIF2AK4 KD2 (human), Q9P2K8 [S808G]
[4] = target: FGFR3 (human) (UniProt P22607)
[5] = target: LIMK2 (human) (UniProt P53671)
[6] = target: HCK (human) (UniProt P08631)
[7] = target: MAPK14 (human) (UniProt Q16539)
[8] = target: GRK7 (human) (UniProt Q8WTQ7)
[9] = target: DAPK3 (human) (UniProt O43293)
[10] = target: MAP4K3 (human) (UniProt Q8IVH8)
[11] = target: TYK2 JH1 catalytic (human) (UniProt P29597)
[12] = target: MAP3K10 (human) (UniProt Q02779)
[13] = target: MAST1 (human) (UniProt Q9Y2H9)
[14] = target: MAP2K7 (human) (UniProt O14733)
Sequence of MAP2K7 (human) (O14733 whole entry, looked up): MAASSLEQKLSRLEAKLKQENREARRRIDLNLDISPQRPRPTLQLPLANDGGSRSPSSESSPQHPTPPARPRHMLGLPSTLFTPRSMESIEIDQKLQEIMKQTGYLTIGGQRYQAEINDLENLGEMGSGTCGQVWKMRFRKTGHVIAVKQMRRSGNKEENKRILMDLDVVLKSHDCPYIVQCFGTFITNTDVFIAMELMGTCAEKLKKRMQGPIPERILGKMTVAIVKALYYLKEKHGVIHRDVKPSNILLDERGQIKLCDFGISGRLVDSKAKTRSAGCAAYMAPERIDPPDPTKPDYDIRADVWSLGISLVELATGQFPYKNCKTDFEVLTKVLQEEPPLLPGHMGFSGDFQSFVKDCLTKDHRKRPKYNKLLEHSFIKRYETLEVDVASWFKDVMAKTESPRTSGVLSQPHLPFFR

[15] = target: SNRK (human) (UniProt Q9NRH2)
[16] = target: SRPK1 (human) (UniProt Q96SB4)
[17] = target: CDC42BPA (human) (UniProt Q5VT25)
[18] = target: PIP4K2C (human) (UniProt Q8TBX8)
[19] = target: BTK (human) (UniProt Q06187)
[20] = target: YES1 (human) (UniProt P07947)
[21] = target: CSNK1A1 (human) (UniProt P48729)
[22] = target: TNK2 (human) (UniProt Q07912)
[23] = target: LIMK1 (human) (UniProt P53667)
Sequence of LIMK1 (human) (P53667 whole entry, looked up): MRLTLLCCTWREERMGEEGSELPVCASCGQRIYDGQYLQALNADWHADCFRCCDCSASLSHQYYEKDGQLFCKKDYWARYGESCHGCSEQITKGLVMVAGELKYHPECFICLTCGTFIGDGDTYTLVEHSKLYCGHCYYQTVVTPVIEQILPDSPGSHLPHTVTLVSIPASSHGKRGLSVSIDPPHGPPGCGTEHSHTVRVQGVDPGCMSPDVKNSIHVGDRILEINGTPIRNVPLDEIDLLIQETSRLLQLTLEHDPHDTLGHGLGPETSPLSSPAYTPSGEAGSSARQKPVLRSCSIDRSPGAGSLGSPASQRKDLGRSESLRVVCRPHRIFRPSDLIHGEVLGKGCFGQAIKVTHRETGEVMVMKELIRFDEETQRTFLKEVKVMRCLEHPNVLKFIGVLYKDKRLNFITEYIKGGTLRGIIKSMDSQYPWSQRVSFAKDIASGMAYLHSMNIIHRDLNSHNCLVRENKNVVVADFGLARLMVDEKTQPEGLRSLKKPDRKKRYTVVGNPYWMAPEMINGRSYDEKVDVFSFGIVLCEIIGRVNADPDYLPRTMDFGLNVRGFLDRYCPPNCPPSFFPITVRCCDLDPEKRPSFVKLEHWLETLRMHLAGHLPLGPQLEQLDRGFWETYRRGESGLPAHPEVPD

[24] = target: RPS6KA4 KD1 (human) (UniProt O75676)
[25] = target: MAP3K4 (human) (UniProt Q9Y6R4)
Sequence of MAP3K4 (human) (Q9Y6R4 whole entry, looked up): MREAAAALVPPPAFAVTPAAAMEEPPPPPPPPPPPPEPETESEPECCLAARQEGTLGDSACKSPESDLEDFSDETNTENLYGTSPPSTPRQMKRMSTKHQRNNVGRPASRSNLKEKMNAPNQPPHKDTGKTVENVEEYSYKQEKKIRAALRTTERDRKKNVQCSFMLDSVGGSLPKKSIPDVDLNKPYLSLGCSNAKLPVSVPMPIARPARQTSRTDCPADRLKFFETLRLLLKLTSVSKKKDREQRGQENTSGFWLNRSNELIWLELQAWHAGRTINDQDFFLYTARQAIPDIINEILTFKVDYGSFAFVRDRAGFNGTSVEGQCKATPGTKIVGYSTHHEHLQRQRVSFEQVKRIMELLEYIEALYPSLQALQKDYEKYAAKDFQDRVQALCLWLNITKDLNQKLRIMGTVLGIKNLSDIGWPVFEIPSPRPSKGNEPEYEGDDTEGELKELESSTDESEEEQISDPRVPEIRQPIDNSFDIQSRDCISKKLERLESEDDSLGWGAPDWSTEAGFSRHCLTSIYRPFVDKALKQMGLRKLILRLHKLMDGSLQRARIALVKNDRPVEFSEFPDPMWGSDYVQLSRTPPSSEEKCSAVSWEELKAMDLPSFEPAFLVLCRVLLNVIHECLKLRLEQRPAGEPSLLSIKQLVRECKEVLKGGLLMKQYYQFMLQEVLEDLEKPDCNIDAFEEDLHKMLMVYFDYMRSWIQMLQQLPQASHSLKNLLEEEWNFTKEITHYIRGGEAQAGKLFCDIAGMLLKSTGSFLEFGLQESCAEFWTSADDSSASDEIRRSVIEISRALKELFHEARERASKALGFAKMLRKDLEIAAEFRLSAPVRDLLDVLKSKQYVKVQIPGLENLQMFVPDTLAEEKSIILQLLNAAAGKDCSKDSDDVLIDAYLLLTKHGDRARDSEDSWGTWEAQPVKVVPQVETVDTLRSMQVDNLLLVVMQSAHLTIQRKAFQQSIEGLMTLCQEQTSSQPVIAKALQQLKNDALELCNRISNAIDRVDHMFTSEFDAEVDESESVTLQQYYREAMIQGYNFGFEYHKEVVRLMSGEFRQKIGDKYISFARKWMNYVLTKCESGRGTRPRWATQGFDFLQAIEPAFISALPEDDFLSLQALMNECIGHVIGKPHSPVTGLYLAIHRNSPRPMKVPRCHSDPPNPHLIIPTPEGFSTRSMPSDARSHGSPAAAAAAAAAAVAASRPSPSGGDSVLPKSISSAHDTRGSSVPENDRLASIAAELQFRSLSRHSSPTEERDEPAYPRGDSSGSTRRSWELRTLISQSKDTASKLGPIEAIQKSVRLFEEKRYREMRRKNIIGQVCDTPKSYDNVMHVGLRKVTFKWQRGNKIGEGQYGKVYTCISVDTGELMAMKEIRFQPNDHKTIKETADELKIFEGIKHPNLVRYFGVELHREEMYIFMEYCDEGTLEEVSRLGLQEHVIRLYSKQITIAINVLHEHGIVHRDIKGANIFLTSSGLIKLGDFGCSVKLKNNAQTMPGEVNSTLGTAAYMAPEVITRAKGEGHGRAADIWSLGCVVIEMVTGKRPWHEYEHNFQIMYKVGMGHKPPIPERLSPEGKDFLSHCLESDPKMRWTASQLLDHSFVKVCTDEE

[26] = target: PIM2 (human) (UniProt Q9P1W9)
[27] = target: EPHA8 (human) (UniProt P29322)
[28] = target: GAK (human) (UniProt O14976)
Sequence of GAK (human) (O14976 whole entry, looked up): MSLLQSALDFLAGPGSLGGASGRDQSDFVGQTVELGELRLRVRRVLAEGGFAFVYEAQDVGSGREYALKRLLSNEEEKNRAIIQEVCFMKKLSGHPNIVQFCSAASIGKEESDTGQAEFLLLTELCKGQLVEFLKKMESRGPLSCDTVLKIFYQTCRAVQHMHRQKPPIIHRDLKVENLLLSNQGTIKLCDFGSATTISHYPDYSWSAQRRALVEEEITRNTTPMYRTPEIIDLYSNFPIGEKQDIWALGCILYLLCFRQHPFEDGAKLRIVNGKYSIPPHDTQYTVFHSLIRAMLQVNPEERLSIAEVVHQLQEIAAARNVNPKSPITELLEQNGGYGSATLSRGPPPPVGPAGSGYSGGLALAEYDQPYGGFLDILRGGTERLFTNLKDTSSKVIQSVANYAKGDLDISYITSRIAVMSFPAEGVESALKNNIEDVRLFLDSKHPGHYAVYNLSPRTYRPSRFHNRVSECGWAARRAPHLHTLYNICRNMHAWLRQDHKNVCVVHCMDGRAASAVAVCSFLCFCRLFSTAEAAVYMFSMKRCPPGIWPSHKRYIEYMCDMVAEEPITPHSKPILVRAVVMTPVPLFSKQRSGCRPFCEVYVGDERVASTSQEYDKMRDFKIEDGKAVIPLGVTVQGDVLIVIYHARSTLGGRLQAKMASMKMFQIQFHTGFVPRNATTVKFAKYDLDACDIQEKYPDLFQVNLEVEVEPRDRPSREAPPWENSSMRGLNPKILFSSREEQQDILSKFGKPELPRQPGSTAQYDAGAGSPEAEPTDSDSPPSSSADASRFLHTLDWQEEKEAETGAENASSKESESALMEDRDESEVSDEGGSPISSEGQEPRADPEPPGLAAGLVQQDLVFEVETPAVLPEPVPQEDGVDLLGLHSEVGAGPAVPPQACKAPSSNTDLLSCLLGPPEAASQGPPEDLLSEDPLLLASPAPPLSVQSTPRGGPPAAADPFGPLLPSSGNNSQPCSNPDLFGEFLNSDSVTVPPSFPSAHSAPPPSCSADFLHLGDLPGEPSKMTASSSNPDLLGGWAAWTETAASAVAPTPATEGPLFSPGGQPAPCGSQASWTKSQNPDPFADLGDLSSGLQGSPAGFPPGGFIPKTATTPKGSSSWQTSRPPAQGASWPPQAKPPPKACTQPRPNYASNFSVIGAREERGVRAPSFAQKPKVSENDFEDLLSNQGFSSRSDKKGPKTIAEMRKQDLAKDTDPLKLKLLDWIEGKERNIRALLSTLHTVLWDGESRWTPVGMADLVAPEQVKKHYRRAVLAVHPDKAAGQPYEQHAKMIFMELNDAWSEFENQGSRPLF

[29] = target: MARK3 (human) (UniProt P27448)
[30] = target: CSNK1A1L (human) (UniProt Q8N752)
[31] = target: BLK (human) (UniProt P51451)
[32] = target: MAP3K6 (human) (UniProt O95382)
[33] = target: MAPK3 (human) (UniProt P27361)
[34] = target: PHKG2 (human) (UniProt P15735)
[35] = target: SRPK2 (human) (UniProt P78362)
[36] = target: CaMK1 (human) (UniProt Q14012)
[37] = target: CAMK2B (human) (UniProt Q13554)
[38] = target: BRSK1 (human) (UniProt Q8TDC3)
[39] = target: MAP4K1 (human) (UniProt Q92918)
[40] = target: NTRK3 (human) (UniProt Q16288)
Sequence of NTRK3 (human) (Q16288 whole entry, looked up): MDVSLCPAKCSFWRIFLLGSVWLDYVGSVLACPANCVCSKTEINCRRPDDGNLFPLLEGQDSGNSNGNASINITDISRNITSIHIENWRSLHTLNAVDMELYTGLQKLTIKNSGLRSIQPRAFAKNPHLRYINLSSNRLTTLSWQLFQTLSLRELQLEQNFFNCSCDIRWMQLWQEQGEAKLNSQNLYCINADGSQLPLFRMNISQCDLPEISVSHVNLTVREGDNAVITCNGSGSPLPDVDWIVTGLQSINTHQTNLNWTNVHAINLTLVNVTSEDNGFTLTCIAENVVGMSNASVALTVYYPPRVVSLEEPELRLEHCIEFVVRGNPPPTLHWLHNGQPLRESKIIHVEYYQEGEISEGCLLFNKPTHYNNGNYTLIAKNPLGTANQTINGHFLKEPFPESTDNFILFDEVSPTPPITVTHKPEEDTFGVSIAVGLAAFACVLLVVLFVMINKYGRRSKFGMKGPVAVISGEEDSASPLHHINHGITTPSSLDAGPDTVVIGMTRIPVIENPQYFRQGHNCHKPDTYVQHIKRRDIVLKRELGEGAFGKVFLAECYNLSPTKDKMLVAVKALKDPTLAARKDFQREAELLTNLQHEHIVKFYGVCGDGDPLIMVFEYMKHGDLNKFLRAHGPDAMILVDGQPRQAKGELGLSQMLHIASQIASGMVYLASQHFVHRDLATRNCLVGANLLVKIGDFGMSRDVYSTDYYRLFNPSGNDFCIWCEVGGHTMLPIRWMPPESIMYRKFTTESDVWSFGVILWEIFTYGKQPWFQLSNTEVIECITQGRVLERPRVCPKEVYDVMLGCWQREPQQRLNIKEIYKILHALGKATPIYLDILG

## N#Cc1c(NC(=O)c2cccc3ccccc23)sc2c1CCCC2
[1]
  kinase still bound, per cent of control: 94%
[2]
  kinase still bound, per cent of control: 98%
[3]
  kinase still bound, per cent of control: 82%
[4]
  kinase still bound, per cent of control: 100%
[5]
  kinase still bound, per cent of control: 100%
[6]
  kinase still bound, per cent of control: 92%
[7]
  kinase still bound, per cent of control: 100%
[8]
  kinase still bound, per cent of control: 88%
[9]
  kinase still bound, per cent of control: 88%
[10]
  kinase still bound, per cent of control: 79%
[11]
  kinase still bound, per cent of control: 100%
[12]
  kinase still bound, per cent of control: 100%
[13]
  kinase still bound, per cent of control: 100%
[14]
  kinase still bound, per cent of control: 100%
[15]
  kinase still bound, per cent of control: 100%
[16]
  kinase still bound, per cent of control: 100%
[17]
  kinase still bound, per cent of control: 100%
[18]
  kinase still bound, per cent of control: 100%
[19]
  kinase still bound, per cent of control: 90%
[20]
  kinase still bound, per cent of control: 78%
[21]
  kinase still bound, per cent of control: 100%
[22]
  kinase still bound, per cent of control: 77%
[23]
  kinase still bound, per cent of control: 76%
[24]
  kinase still bound, per cent of control: 91%
[25]
  kinase still bound, per cent of control: 86%
[26]
  kinase still bound, per cent of control: 69%
[27]
  kinase still bound, per cent of control: 79%
[28]
  kinase still bound, per cent of control: 67%
[29]
  kinase still bound, per cent of control: 89%
[30]
  kinase still bound, per cent of control: 66%
[31]
  kinase still bound, per cent of control: 91%
[32]
  kinase still bound, per cent of control: 93%
[33]
  kinase still bound, per cent of control: 74%
[34]
  kinase still bound, per cent of control: 83%
[35]
  kinase still bound, per cent of control: 100%
[36]
  kinase still bound, per cent of control: 73%
[37]
  kinase still bound, per cent of control: 90%
[38]
  kinase still bound, per cent of control: 100%
[39]
  kinase still bound, per cent of control: 89%
[40]
  kinase still bound, per cent of control: 86%

## O=C(NOC[C@H](O)CO)c1ccc(F)c(F)c1Nc1ccc(I)cc1F
[1]
  kinase still bound, per cent of control: 100%
[2]
  kinase still bound, per cent of control: 100%
[3]
  kinase still bound, per cent of control: 84%
[4]
  kinase still bound, per cent of control: 100%
[5]
  kinase still bound, per cent of control: 100%
[6]
  kinase still bound, per cent of control: 100%
[7]
  kinase still bound, per cent of control: 100%
[8]
  kinase still bound, per cent of control: 100%
[9]
  kinase still bound, per cent of control: 100%
[10]
  kinase still bound, per cent of control: 87%
[11]
  kinase still bound, per cent of control: 100%
[12]
  kinase still bound, per cent of control: 100%
[13]
  kinase still bound, per cent of control: 100%
[14]
  kinase still bound, per cent of control: 100%
[15]
  kinase still bound, per cent of control: 100%
[16]
  kinase still bound, per cent of control: 100%
[17]
  kinase still bound, per cent of control: 100%
[18]
  kinase still bound, per cent of control: 100%
[19]
  kinase still bound, per cent of control: 87%
[20]
  kinase still bound, per cent of control: 73%
[21]
  kinase still bound, per cent of control: 100%
[22]
  kinase still bound, per cent of control: 72%
[23]
  kinase still bound, per cent of control: 68%
[24]
  kinase still bound, per cent of control: 86%
[25]
  kinase still bound, per cent of control: 100%
[26]
  kinase still bound, per cent of control: 75%
[27]
  kinase still bound, per cent of control: 94%
[28]
  kinase still bound, per cent of control: 71%
[29]
  kinase still bound, per cent of control: 91%
[30]
  kinase still bound, per cent of control: 80%
[31]
  kinase still bound, per cent of control: 83%
[32]
  kinase still bound, per cent of control: 95%
[33]
  kinase still bound, per cent of control: 86%
[34]
  kinase still bound, per cent of control: 93%
[35]
  kinase still bound, per cent of control: 100%
[36]
  kinase still bound, per cent of control: 98%
[37]
  kinase still bound, per cent of control: 100%
[38]
  kinase still bound, per cent of control: 100%
[39]
  kinase still bound, per cent of control: 77%
[40]
  kinase still bound, per cent of control: 93%
